# Test results: patent US20230331679A1, “NAPHTHALENE MONOIMIDE COMPOUNDS AND METHODS THEREOF” (JAWAHARLAL NEHRU CENTRE FOR ADVANCED SCIENTIFIC RESEARCH, priority 2020, published 2023)
# Legend:
# [1] = molecular target: T1, Aβ42 (Homo sapiens, UniProt P05067); experiment: ThT binding assay, inhibition of Aβ42 fibrillar assembly; format: biochemical
# T1 construct: commercially available β-amyloid peptide (1-42), human; purchased marck (so in the source) PP69-.025 mg
# Procedure: Monomeric form of Aβ42 peptide was prepared by dissolving 0.25 mg of commercially available β-amyloid peptide (1-42), human (cat: PP69-.025 mg), marck peptide in 250 µL of hexafluoro-2-propanol (HFIP) solvent to obtain a Aβ42 solution. This solution was incubated at room temperature for 1 hour, further to which the HFIP solvent was removed by nitrogen gas flow to obtain the monomeric Aβ42 peptide. To prepare a fibrillar sample of Aβ42 peptide, 0.025 mg of Aβ42 peptide was dissolved in […] of PBS buffer (pH = 7.4; contains 2% of DMSO or 100 mM NaOH) to obtain a monomeric Aβ42 solution and the peptide concentration in this solution was calculated through UV-Visible absorbance studies (ε = 1450 cm^-1 M^-1). The Aβ42 monomeric solution was incubated for 5 days in PBS buffer (pH = 7.4) to allow for the full phase formation of Aβ42 fibrils. The presence of Aβ42 fibrils was further confirmed by ThT assay.
# Initially, the ability of the prepared NMI compounds, TGR63-68 to inhibit Aβ42 fibrillar assembly at 1:1 molar ratio with Aβ42 fibrils was evaluated using thioflavin (ThT) binding assay. 10 µM of Aβ42 fibrils in the absence (Ctrl) and the presence of 10 µM of inhibitors individually were incubated for 72 h. A normalized data for fluorescence intensity (NFI) of ThT at 482 nm (λex = 442 nm) was measured as represented in FIG. 1(a).
# The ability of NMI compounds (TGR63, TGR64 and TGR65) to prevent Aβ42 fibrillar assembly (inhibition) and to break down the preformed fibrils (dissolution) was evaluated using thioflavin (ThT) binding assay. Aβ42 fibrils at a concentration of 10 µM and its aggregates, were used to study the effect of NMI compounds (TGR63, TGR64 and TGR65) at varying concentrations on both inhibition and dissolution assays. For the inhibition assay, all the NMI compounds (TGR63, TGR64 and TGR65) were added independently to Aβ peptide (10 µM) at 0 h of the experiment, whereas for the aggregates dissolution assay they were added to Aβ42 fibrillar aggregates grown for 2 days. Upon incubating for a predetermined period, Aβ42 inhibitor samples were analyzed using ThT by measuring the fluorescence change at 485 nm as presented in FIG. 1(b) and FIG. 1(c), wherein the error bars represent the standard deviation (SD) of the fluorescence measurement. Fluorescence values were normalized to maximal fluorescence intensity at 485 nm compared to that of the control (Aβ42 with no inhibitor). Experiments were performed at various stoichiometric ratios (Aβ42/inhibitor) of 1:1, 1:2, and 1:5 with a fixed concentration of Aβ42 at 10 µM. Each experiment was repeated three times (n = 3). […] TGR 63 recorded 80% dissolution efficiency while TGR 64 and TGR 65 recorded 75% and 78% dissolution efficiency respectively, for the stoichiometric ratio of 1:5.
# [2] = molecular target: T2, Aβ42 fibrils (Homo sapiens, UniProt P05067); experiment: Dot blot analysis of Aβ42 fibrils with OC antibody; format: biochemical
# T2 construct: commercially available β-amyloid peptide (1-42), human; purchased marck (so in the source) PP69-.025 mg
# T2 sequence (P05067 672-713 limits assumed): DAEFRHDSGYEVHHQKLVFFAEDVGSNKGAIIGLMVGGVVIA
# Procedure: The inhibition ability of TGR63 was further supported through dot blot ([…]) analysis which was used to evaluate the amount of Aβ42 fibrils. 10 µM of freshly prepared Aβ42 sample was incubated with TGR63 and alone independently for 48 h without shaking. The incubated samples were dotted on the PVDF membrane and allowed to dry. The PVDF membranes were blocked using 5% skimmed milk in PBS for 1 h at room temperature. The blots were washed (3 times) with 1% of Tween 20 containing PBS (PBST) for 10 min and incubated with OC (1:1000) primary antibody, specific to Aβ42 fibrils at 4° C. for 16 h. Then the unbound primary antibody was removed by PBST wash (3 times) and incubated with HRP conjugated anti-rabbit secondary antibody (Biorad, 1706515), which was diluted 10000 times. Further, nonspecific binding was removed with PBST wash and the blots were developed (chemiluminescent) and analyzed using BioRad ECL kit. […] Quantification of Aβ42 fibrils was done by firstly incubating 10 µM of Aβ42 peptide samples for 48 h at 37° C. The incubated samples were then spotted on a PVDF membrane and probed with OC (fibril specific, 1:1000) antibody to measure the amount of Aβ fibrils.
# [3] = test system: APP/PS1 and WT mice; experiment: Morris water maze (MWM) test; format: in vivo
# Procedure: The spatial and episodic memory formation under AD conditions were investigated through spatial learning and memory development tasks in MWM test. MWM test was performed in a water pool (radius: 70 cm) and experimental mice were trained four times in a day to find a hidden platform, which was removed in probe trial to assess the spatial memory. The latency time to reach the hidden platform during the training period was recorded to determine spatial learning (FIG. 16H). […] In the probe trial, AD vehicle cohort spent most of the time (~87% of total time) in other quadrants (without platform), while other cohorts (WT vehicle, WT TGR63 and AD TGR63) spent only ~67%, 58% and 66% of total time in without platform quadrants, respectively. The AD vehicle cohort spent minimum time (~13% of total time) in target quadrant (with platform) compared to WT vehicle cohort (~33% of total time). […] Remarkably, AD TGR63 cohort crossed the platform region ~4 times, which is greater than the AD vehicle cohort.
# T1 sequence (P05067 672-713 limits assumed): as above
compound,measurement,setting,value
"CN(C)c1ccc(C#Cc2ccc3c4c(cccc24)C(=O)N(CC[N+](C)(C)C)C3=O)cc1 [TGR63, 2-(6-((4-(dimethylamino)phenyl)ethynyl)-1,3-dioxo-1H-benzo[de]isoquinolin-2(3H)-yl)-N,N,N-trimethylethan-1-aminium]",inhibitory effect on Aβ42 aggregation (ThT NFI at 482 nm),"[1]; 1:1 molar ratio, 10 µM Aβ42, 10 µM inhibitor, 72 h",~ 45%
same,decrease in the formation of Aβ aggregates,"[1]; Aβ42/inhibitor 1:1, Aβ42 10 µM, third day of incubation",~ 50%
same,Aβ aggregation decreased to,"[1]; Aβ42/inhibitor 1:2, Aβ42 10 µM, third day of incubation",75%
same,Aβ aggregation decreased to,"[1]; Aβ42/inhibitor 1:5, Aβ42 10 µM, third day of incubation",90%
same,Aβ42 aggregates (quantification of dot blot),"[2]; L2, 10 µM TGR63, 10 µM Aβ42, 48 h at 37° C.",~ 90%
same,amount of Aβ42 fibrils decreased (blot image; Aβ42 alone 100%),"[2]; L3, 50 µM TGR63, 10 µM Aβ42, 48 h",~ 50%
same,Aβ42 aggregates (quantification of dot blot),"[2]; L3, 50 µM TGR63, 10 µM Aβ42, 48 h at 37° C.",~ 40%
same,exploration in target quadrant relative to AD vehicle cohort,"[3]; AD TGR63 cohort, probe trial",< 20%
same,spatial memory formation (latency to hidden platform during training),"[3]; AD TGR63 cohort, training days",significant improvement in spatial memory formation compared to AD vehicle cohort
same,"platform region crossings, probe trial","[3]; AD TGR63 cohort, AD vehicle ~1 time, WT vehicle ~4 times",~ 4 times
same,"exploration in target quadrant, probe trial","[3]; AD TGR63 cohort, AD vehicle ~13%",~ 34 % of total time
same,"time in without platform quadrants, probe trial","[3]; AD TGR63 cohort, AD vehicle ~87%",~66 % of total time
same,"exploration in target quadrant, probe trial","[3]; WT TGR63 cohort, WT vehicle ~33%",< 35 % of total time
same,"time in without platform quadrants, probe trial","[3]; WT TGR63 cohort, WT vehicle ~67%",~58 % of total time
